Test results reported in patent publication US4623662A, “Antiatherosclerotic ureas and thioureas” (American Cyanamid Company, priority 1985, dated 1986).

Each compound was assayed against T1, fatty acyl CoA: cholesterol acyl transferase (ACAT) (Rattus norvegicus, UniProt O70536) (assay: Inhibition of fatty acyl CoA:cholesterol acyl transferase (ACAT), rat adrenal enzyme). Conditions: not given.
T1 construct: The supernatant, containing the microsomal fraction, served as the source of the cholesterol-esterifying enzyme; from tissue; host or cells: rat adrenals, supernatant of 1,000 x g centrifugation containing the microsomal fraction
T1 sequence (O70536 1-545): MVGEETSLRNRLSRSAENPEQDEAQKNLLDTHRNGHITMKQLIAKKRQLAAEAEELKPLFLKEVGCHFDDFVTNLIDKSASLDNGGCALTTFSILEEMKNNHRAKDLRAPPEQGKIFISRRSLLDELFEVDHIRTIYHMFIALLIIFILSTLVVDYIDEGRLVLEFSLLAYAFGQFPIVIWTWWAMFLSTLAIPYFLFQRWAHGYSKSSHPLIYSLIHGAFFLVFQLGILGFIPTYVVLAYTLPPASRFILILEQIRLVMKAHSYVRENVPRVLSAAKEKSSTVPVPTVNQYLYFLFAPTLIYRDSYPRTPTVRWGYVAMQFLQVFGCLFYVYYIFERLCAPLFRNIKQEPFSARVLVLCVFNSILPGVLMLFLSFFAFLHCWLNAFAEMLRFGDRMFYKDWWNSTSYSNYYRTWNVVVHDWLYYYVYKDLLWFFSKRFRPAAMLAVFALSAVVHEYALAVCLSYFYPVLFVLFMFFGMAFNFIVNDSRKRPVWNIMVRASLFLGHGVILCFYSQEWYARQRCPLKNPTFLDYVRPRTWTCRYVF
Assay type: biochemical
Protocol: The compounds of the present invention were assayed for two types of biological activity related to their potential use as antiatherosclerotic agents. Compounds were tested in vitro for the ability to inhibit the enzyme fatty acyl CoA: cholesterol acyl transferase (ACAT) and in vivo for serum hypolipidemic activity as meausred by the ability to inhibit lipid absorption in rats.
The compounds were tested for their ability to inhibit ACAT according to the following procedure: rat adrenals were homogenized in 0.2M monobasic potassium phosphate buffer, pH 7.4, and centrifuged at 1,000 times gravity for 15 minutes at 5° C. The supernatant, containing the microsomal fraction, served as the source of the cholesterol-esterifying enzyme, fatty acyl CoA:cholesterol acyl transferase (ACAT). A mixture comprising 50 parts of adrenal supernatant, 10 parts of bovine serum albumin (50 mg/ml), 3 parts of test compound (final concentration 5.2 μg/ml), and 500 parts of buffer was preincubated at 37° C. for 10 minutes. After treatment with 20 parts of oleoyl CoA (^14 C-0.4 μCi), the mixture was incubated at 37° C. for 10 minutes. A control mixture, omitting the test compound, was prepared and treated in the same manner. The lipids from the incubation mixture was extracted into an organic solvent and separated by thin-layer chromatography. The cholesteryl ester fraction was counted in a scintillation counter. This procedure is a modification of that described by Hashimoto, et al., Life Scie., 12 (Part II), 1-12 (1973).
Compounds which produced statistically significant inhibition of the ACAT enzyme are considered to be active.
In addition to the above described test and the results given in terms of percent inhibition, various compounds of this invention were tested by the same procedure at several concentrations. The results of this test are given in Table II in terms of IC50 (μM), that concentration which produced 50% inhibition of the ACAT enzyme.
CC(C)(C)CCN(Cc1ccccc1)C(=O)Nc1c(F)cc(F)cc1F [1-Benzyl-1-[3,3-dimethylbutyl]-3-[2,4,6-trifluorophenyl]urea] gave an inhibition at 5.2 µg/mL of 90%.
Cc1ccc(CN(CCc2cccc(F)c2)C(=O)Nc2ccc(C)cc2C)cc1 [1-[2-(3-Fluorophenyl)ethyl]-1-(4-methylbenzyl)-3-(2,4-dimethylphenyl)urea] gave an inhibition at 5.2 µg/mL of 80.5%.
CC(C)(C)CCN(Cc1ccc(CC(C)(C)C)cc1)C(=O)Nc1c(F)cc(F)cc1F [1-[3,3-dimethylbutyl]-1-[[4-(2,2-dimethylpropyl)phenyl]methyl]-3-[2,4,6-trifluorophenyl]urea] showed an inhibition at 5.2 µg/mL of 90%.
With CCCCc1ccc(CN(CCCCCCOS(C)(=O)=O)C(=O)Nc2c(Cl)cc(Cl)cc2Cl)cc1 [1-[(4-Butylphenyl)methyl]-1-[6-(methylsulfonyloxy)-hexyl]-3-(2,4,6-trichlorophenyl)urea] the inhibition at 5.2 µg/mL was 90%.

Same assay, conditions: rat adrenal ACAT; final concentration 5.2 μg/ml; read-out: % Inhibition
Compound CCCCCCCCCCCCCCN(Cc1ccccc1)C(=O)Nc1ccc(C)cc1C [1-(n-Tetradecyl)-1-benzyl-3-(2,4-dimethylphenyl)urea] has an inhibition at 5.2 µg/mL of 80.3%.
With CCCCc1ccc(CN(Cc2ccccc2)C(=O)Nc2ccc(Oc3ccccc3)cc2)cc1 [1-Benzyl-1-(4-n-butylbenzyl)-3-(4-phenoxyphenyl)urea] the inhibition at 5.2 µg/mL was 93.5%.
CCCCN(Cc1ccccc1)C(=O)Nc1cccc(C)c1C [1-Benzyl-1-( -n-butyl)-3-(2,3-dimethylphenyl)urea] was tested, and the inhibition at 5.2 µg/mL was 85.8%.
In the case of CCCCN(Cc1ccccc1)C(=O)Nc1c(C)cc(C)cc1C [1-Benzyl-1-( -n-butyl)-3-(2,4,6-trimethylphenyl)urea], the inhibition at 5.2 µg/mL is reported as 75.8%.
CCCCN(Cc1ccccc1)C(=O)Nc1cc(C)ccc1C [1-Benzyl-1-( -n-butyl)-3-(2,5-dimethylphenyl)urea] showed an inhibition at 5.2 µg/mL of 92.7%.
Compound CCCCN(Cc1ccccc1)C(=O)Nc1ccccc1C [1-Benzyl-1-( -n-butyl)-3-(2-methylphenyl)urea] has an inhibition at 5.2 µg/mL of 78.8%.
CCCCN(Cc1ccccc1)C(=O)Nc1ccc(Cl)c(Cl)c1 [1-Benzyl-1-( -n-butyl)-3-(3,4-dichlorophenyl)urea] gave an inhibition at 5.2 µg/mL of 95.9%.
CCCCN(Cc1ccccc1)C(=O)Nc1ccc(C)c(C)c1 [1-Benzyl-1-( -n-butyl)-3-(3,4-dimethylphenyl)urea] gave an inhibition at 5.2 µg/mL of 87.1%.
Compound CCCCN(Cc1ccccc1)C(=O)Nc1cc(Cl)cc(Cl)c1 [1-Benzyl-1-( -n-butyl)-3-(3,5-dichlorophenyl)urea] has an inhibition at 5.2 µg/mL of 90.7%.
CCCCN(Cc1ccccc1)C(=O)Nc1cccc(Cl)c1OC [1-Benzyl-1-( -n-butyl)-3-(3-chloro-2-methoxyphenyl)urea] showed an inhibition at 5.2 µg/mL of 84.5%.
For CCCCN(Cc1ccccc1)C(=O)Nc1cccc(C)c1 [1-Benzyl-1-( -n-butyl)-3-(3-methylphenyl)urea], the inhibition at 5.2 µg/mL was 92.3%.
CCCCN(Cc1ccccc1)C(=O)Nc1cccc(C(F)(F)F)c1 [1-Benzyl-1-( -n-butyl)-3-(3-trifluoromethylphenyl)urea] was tested, and the inhibition at 5.2 µg/mL was 85.7%.
With CCCCN(Cc1ccccc1)C(=O)Nc1ccc(C)cc1 [1-Benzyl-1-( -n-butyl)-3-(4-methylphenyl)urea] the inhibition at 5.2 µg/mL was 78%.
Compound CCCCN(Cc1ccccc1)C(=O)Nc1cc(Cl)ccc1OC [1-Benzyl-1-( -n-butyl)-3-(5-chloro-2-methoxyphenyl)urea] has an inhibition at 5.2 µg/mL of 80.6%.
In the case of CCCCN(Cc1ccccc1)C(=O)Nc1cccc(Cl)c1 [1-Benzyl-1-(n-butyl)-3-(3-chlorophenyl)urea], the inhibition at 5.2 µg/mL is reported as 88.6%.
CCCCN(Cc1ccccc1)C(=S)Nc1ccccc1 [1-Benzyl-1-(n-butyl)-3-phenyl thiourea] gave an inhibition at 5.2 µg/mL of 82.4%.
COc1cccc(C(Cc2ccccc2)N(Cc2ccccc2)C(=O)Nc2ccc(C)cc2C)c1 (stereo not drawn) [1-Benzyl-1-[1-(3-methoxyphenyl)-2-phenylethyl]-3-(2,4-dimethylphenyl)urea] showed an inhibition at 5.2 µg/mL of 86.4%.
Work on COc1cccc(C(Cc2ccccc2)N(Cc2ccccc2)C(=O)Nc2cccc(C(F)(F)F)c2)c1 (stereo not drawn) [1-Benzyl-1-[1-(3-methoxyphenyl)-2-phenylethyl]-3-(3-trifluoromethylphenyl)urea] yielded an inhibition at 5.2 µg/mL of 88.1%.
Cc1ccc(NC(=O)N(Cc2ccccc2)C(Cc2ccccc2)c2ccc(OCc3ccccc3)cc2)c(C)c1 (stereo not drawn) [1-Benzyl-1-[1-(4-benzyloxyphenyl)-2-phenylethyl]-3-(2,4-dimethylphenyl)urea] gave an inhibition at 5.2 µg/mL of 93%.
O=C(Nc1cc(Cl)c(Cl)cc1Cl)N(Cc1ccccc1)C(Cc1ccccc1)c1ccc(OCc2ccccc2)cc1 (stereo not drawn) [1-Benzyl-1-[2-phenyl-1-(4-benzyloxyphenyl)ethyl]-3-(2,4,5-trichlorophenyl)urea] was tested, and the inhibition at 5.2 µg/mL was 95%.
For Cc1cc(C)c(NC(=O)N(Cc2ccccc2)C(Cc2ccccc2)c2ccc(OCc3ccccc3)cc2)cc1C (stereo not drawn) [1-Benzyl-1-[2-phenyl-1-(4-benzyloxyphenyl)ethyl]-3-(2,4,5-trimethylphenyl)urea], the inhibition at 5.2 µg/mL was 93.7%.
In the case of O=C(Nc1ccc(Cl)cc1C(F)(F)F)N(Cc1ccccc1)C(Cc1ccccc1)c1ccc(OCc2ccccc2)cc1 (stereo not drawn) [1-Benzyl-1-[2-phenyl-1-(4-benzyloxyphenyl)ethyl]-3-(2-trifluoromethyl-4-chlorophenyl)urea], the inhibition at 5.2 µg/mL is reported as 92%.
Work on O=C(Nc1cccc(C(F)(F)F)c1)N(Cc1ccccc1)C(Cc1ccccc1)c1ccc(OCc2ccccc2)cc1 (stereo not drawn) [1-Benzyl-1-[2-phenyl-1-(4-benzyloxyphenyl)ethyl]-3-(3-trifluoromethylphenyl)urea] yielded an inhibition at 5.2 µg/mL of 74%.
COc1ccc(OC)c(CCN(Cc2cccc(Cl)c2)C(=O)Nc2ccc(C)cc2C)c1 [1-[2-(2,5-Dimethoxyphenyl)ethyl]-1-(3-chlorobenzyl)-3-(2,4-dimethylphenyl)urea] gave an inhibition at 5.2 µg/mL of 97.1%.
Work on Cc1ccc(NC(=O)N(CCc2ccccc2Cl)Cc2ccc(C)c(C)c2)c(C)c1 [1-[2-(2-Chlorophenyl)ethyl]-1-(3,4-dimethylbenzyl)-3-(2,4-dimethylphenyl)urea] yielded an inhibition at 5.2 µg/mL of 92.8%.
With Cc1cccc(CN(CCc2ccccc2Cl)C(=O)Nc2ccc(C)cc2C)c1 [1-[2-(2-Chlorophenyl)ethyl]-1-(3-methylbenzyl)-3-(2,4-dimethylphenyl)urea] the inhibition at 5.2 µg/mL was 56.1%.
Cc1ccc(NC(=O)N(CCc2ccccc2C)Cc2ccc(Br)cc2)c(C)c1 [1-[2-(2-Methylphenyl)ethyl]-1-(4-bromobenzyl)-3-(2,4-dimethylphenyl)urea] showed an inhibition at 5.2 µg/mL of 29.2%.
Compound COc1ccc(CCN(Cc2ccc(C)c(Cl)c2)C(=O)Nc2ccc(C)cc2C)cc1OC [1-[2-(3,4-Dimethoxyphenyl)ethyl]-1-(3-chloro-4-methylbenzyl)-3-(2,4-dimethylphenyl)urea] has an inhibition at 5.2 µg/mL of 53.3%.
COc1ccc(CCN(Cc2ccc(F)cc2)C(=O)Nc2ccc(C)cc2C)cc1OC [1-[2-(3,4-Dimethoxyphenyl)ethyl]-1-(4-fluorobenzyl)-3-(2,4-dimethylphenyl)urea] was tested, and the inhibition at 5.2 µg/mL was 57.4%.
Compound Cc1cccc(CCN(Cc2cccc([N+](=O)[O-])c2)C(=O)Nc2ccc(C)cc2C)c1 [1-[2-(3-Methylphenyl)ethyl]-1-(3-nitrobenzyl)-3-(2,4-dimethylphenyl)urea] has an inhibition at 5.2 µg/mL of 95.7%.
With Cc1ccc(NC(=O)N(CCc2cccc(C(F)(F)F)c2)Cc2ccccc2Cl)c(C)c1 [1-[2-(3-Trifluoromethylphenyl)ethyl]-1-(2-chlorobenzyl)-3-(2,4-dimethylphenyl)urea] the inhibition at 5.2 µg/mL was 7.8%.
CCOc1ccc(CCN(Cc2ccc(C)cc2C)C(=O)Nc2ccc(C)cc2C)cc1 [1-[2-(4-Ethoxyphenyl)ethyl]-1-(2,4-dimethylbenzyl)-3-(2,4-dimethylphenyl)urea] gave an inhibition at 5.2 µg/mL of 34.9%.
With CCOc1ccc(CCN(Cc2ccccc2Cl)C(=O)Nc2ccc(C)cc2C)cc1 [1-[2-(4-Ethoxyphenyl)ethyl]-1-(2-chlorobenzyl)-3-(2,4-dimethylphenyl)urea] the inhibition at 5.2 µg/mL was 94.1%.
Compound CCCCc1ccc(CN(CCCCCCO)C(=O)Nc2ccc(C)cc2C)cc1 [1-[(4-Butylphenyl)methyl]-3-(2,4-dimethylphenyl)-1-(6-hydroxyhexyl)urea] has an inhibition at 5.2 µg/mL of 96.8%.
With CCCCc1ccc(CN(CCOCCO)C(=O)Nc2ccc(C)cc2C)cc1 [1-[(4-Butylphenyl)methyl]-3-(2,4-dimethylphenyl)-1-[2-(2-hydroxyethoxy)ethyl]urea] the inhibition at 5.2 µg/mL was 74.5%.
